Test results reported in patent US10077243B2, “Compounds for treating disorders mediated by metabotropic glutamate receptor 5, and methods of use thereof” (Sunovion Pharmaceuticals Inc., priority 2009, dated 2018).

Molecular target: T1, human mGluR5 (Homo sapiens, UniProt P41594)
T1 construct: expressed in transfected cells; host or cells: HEK293 cells stably expressing rat GLAST (EAAT1), stably transfected with pcDNAzeo3.1 carrying synthetic human mGluR5 DNA; zeocin-selected single clones
Assay: In vitro cell-based FLIPR calcium assay for positive modulation of the activation of mGluR5 by glutamate (PAM EC50)
Conditions: HEK293/GLAST cells expressing recombinant human mGluR5; FLIPR calcium signal; glutamate added at its EC20; read-out: mGluR5 PAM EC50
Summary of the method: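 HEK293/GLAST cells stably expressing mGluR5 were loaded with calcium-sensitive dye (25 °C, 45–60 min) in HBSS/20 mM HEPES. Test compounds were assayed in buffer containing glutamate at that day's EC20, with FLIPR fluorescence recorded. Controls contained 0.3% DMSO without compound.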

T1 sequence (P41594 21-1212): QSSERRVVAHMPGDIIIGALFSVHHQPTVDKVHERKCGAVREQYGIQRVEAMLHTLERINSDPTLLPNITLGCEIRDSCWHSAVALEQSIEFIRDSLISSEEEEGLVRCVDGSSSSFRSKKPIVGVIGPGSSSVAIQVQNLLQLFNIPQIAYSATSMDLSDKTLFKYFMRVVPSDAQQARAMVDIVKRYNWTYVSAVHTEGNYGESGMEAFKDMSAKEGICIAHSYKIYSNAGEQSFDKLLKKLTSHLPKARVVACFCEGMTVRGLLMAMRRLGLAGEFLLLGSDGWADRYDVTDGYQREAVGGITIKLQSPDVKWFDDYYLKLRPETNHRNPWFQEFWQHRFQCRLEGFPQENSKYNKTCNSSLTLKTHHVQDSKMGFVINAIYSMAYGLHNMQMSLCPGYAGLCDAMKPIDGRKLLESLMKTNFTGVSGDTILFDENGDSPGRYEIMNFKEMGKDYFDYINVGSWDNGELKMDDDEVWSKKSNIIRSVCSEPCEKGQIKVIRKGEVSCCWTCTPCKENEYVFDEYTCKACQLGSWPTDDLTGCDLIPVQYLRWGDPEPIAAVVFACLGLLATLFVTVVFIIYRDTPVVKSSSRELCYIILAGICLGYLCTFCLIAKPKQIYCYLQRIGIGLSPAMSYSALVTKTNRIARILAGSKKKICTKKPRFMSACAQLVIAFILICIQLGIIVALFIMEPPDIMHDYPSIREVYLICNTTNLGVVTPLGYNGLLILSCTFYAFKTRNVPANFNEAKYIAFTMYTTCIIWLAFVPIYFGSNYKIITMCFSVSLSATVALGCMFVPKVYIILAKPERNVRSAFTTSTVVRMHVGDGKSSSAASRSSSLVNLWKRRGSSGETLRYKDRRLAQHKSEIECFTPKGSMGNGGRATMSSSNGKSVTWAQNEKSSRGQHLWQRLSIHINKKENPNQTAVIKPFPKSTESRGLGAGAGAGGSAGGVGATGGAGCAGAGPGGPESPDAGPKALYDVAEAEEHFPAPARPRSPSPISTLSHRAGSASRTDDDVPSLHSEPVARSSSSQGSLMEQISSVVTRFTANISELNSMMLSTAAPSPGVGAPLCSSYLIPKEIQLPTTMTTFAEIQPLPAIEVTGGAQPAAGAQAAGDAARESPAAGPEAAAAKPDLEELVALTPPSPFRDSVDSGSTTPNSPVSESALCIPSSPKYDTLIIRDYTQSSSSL

Compound | EC50 [nM]
O=CN1CCc2nc3cc(C#Cc4cccc(F)c4)ccc3c(=O)n2CC1 [Example 8.18, 8-((3-fluorophenyl)ethynyl)-11-oxo-1,2,4,5-tetrahydro-[1,4]diazepino[7,1-b]quinazoline-3(11H)-carbaldehyde] | 30 to 100
O=c1c2ccc(C#Cc3ccccn3)cc2nc2n1CCN(CCC(F)(F)F)CC2 [Example 8.21, 8-(pyridin-2-ylethynyl)-3-(3,3,3-trifluoropropyl)-2,3,4,5-tetrahydro-[1,4]diazepino[7,1-b]quinazolin-11(1H)-one] | 100 to 300
C#CCN1CCc2nc3cc(C#Cc4ccccn4)ccc3c(=O)n2CC1 [Example 8.22, 3-(prop-2-yn-1-yl)-8-(pyridin-2-ylethynyl)-2,3,4,5-tetrahydro-[1,4]diazepino[7,1-b]quinazolin-11(1H)-one] | 30 to 100
N#CCN1CCc2nc3cc(C#Cc4ccccn4)ccc3c(=O)n2CC1 [Example 8.23, 2-(11-oxo-8-(pyridin-2-ylethynyl)-1,2,4,5-tetrahydro-[1,4]diazepino[7,1-b]quinazolin-3(11H)-yl)acetonitrile] | 30 to 100
CC(C#N)N1CCc2nc3cc(C#Cc4ccccn4)ccc3c(=O)n2CC1 (stereo not shown) [Example 8.24, 2-(11-oxo-8-(pyridin-2-ylethynyl)-1,2,4,5-tetrahydro-[1,4]diazepino[7,1-b]quinazolin-3(11H)-yl)propanenitrile] | 300 to 1000
O=c1c2ccc(C#Cc3ccccn3)cc2nc2n1CCCCN2 [Example 8.25, 10-(pyridin-2-ylethynyl)-2,3,4,5-tetrahydro-[1,3]diazepino[2,1-b]quinazolin-7(1H)-one] | 10 to 30
O=c1c2ccc(C#Cc3ccccn3)cc2nc2n1C1CCN(CC1)C2 [Example 8.26] | 100 to 300
CC1Cc2nc3cc(C#Cc4ccccn4)ccc3c(=O)n2CCN1C (stereo not shown) [Example 8.28, 3,4-dimethyl-8-(pyridin-2-ylethynyl)-2,3,4,5-tetrahydro-[1,4]diazepino[7,1-b]quinazolin-11(1H)-one] | 300 to 1000
CC1Cn2c(nc3cc(C#Cc4ccccn4)ccc3c2=O)CCN1C (stereo not shown) [Example 8.30, 2,3-dimethyl-8-(pyridin-2-ylethynyl)-2,3,4,5-tetrahydro-[1,4]diazepino[7,1-b]quinazolin-11(1H)-one] | 100 to 300
CN1C2CCC1Cn1c(nc3cc(C#Cc4cccc(F)c4)ccc3c1=O)C2 (stereo not shown) [Example 9.1, 3-((3-fluorophenyl)ethynyl)-14-methyl-8,9,10,11-tetrahydro-6H-7,10-epiminoazocino[2,1-b]quinazolin-13(7H)-one] | 300 to 1000
O=c1c2ccc(C#Cc3ccccn3)cc2nc2n1CC1CCCCN1CC2 (stereo not shown) [Example 9.2, 3-(pyridin-2-ylethynyl)-9,10,11,12,12a,13-hexahydro-6H-pyrido[2′,1′:3,4][1,4]diazepino[7,1-b]quinazolin-15(7H)-one] | 100 to 300
O=c1c2ccc(C#Cc3ccccn3)cc2nc2n1CC1CCCN1CC2 (stereo not shown) [Example 9.4, 9-(pyridin-2-ylethynyl)-2,3,5,6,14,14a-hexahydropyrrolo[2′,1′:3,4][1,4]diazepino[7,1-b]quinazolin-12(1H)-one] | 30 to 100
O=c1c2ccc(C#Cc3ccccn3)cc2nc2n1CCN1CCCC1C2 (stereo not shown) [Example 9.5, 11-(pyridin-2-ylethynyl)-2,3,5,6,14,14a-hexahydropyrrolo[1′,2′:4,5][1,4]diazepino[7,1-b]quinazolin-8(1H)-one] | 100 to 300
CN1CCCn2c(nc3cc(C#Cc4ccc(F)cc4)ccc3c2=O)CC1 [Example 10.1, 11-((4-fluorophenyl)ethynyl)-3-methyl-3,4,5,6-tetrahydro-1H-[1,5]diazocino[2,1-b]quinazolin-8(2H)-one] | 10 to 30
CN1CCCc2nc3cc(C#Cc4ccc(F)cc4)ccc3c(=O)n2CC1 [Example 10.2, 9-((4-fluorophenyl)ethynyl)-3-methyl-3,4,5,6-tetrahydro-1H-[1,4]diazocino[8,1-b]quinazolin-12(2H)-one] | 30 to 100
CN1CCCn2c(nc3cc(C#Cc4cccc(F)c4)ccc3c2=O)CC1 [Example 10.3, 11-((3-fluorophenyl)ethynyl)-3-methyl-3,4,5,6-tetrahydro-1H-[1,5]diazocino[2,1-b]quinazolin-8(2H)-one] | 10 to 30
CN1CCCc2nc3cc(C#Cc4cccc(F)c4)ccc3c(=O)n2CC1 [Example 10.4, 9-((3-fluorophenyl)ethynyl)-3-methyl-3,4,5,6-tetrahydro-1H-[1,4]diazocino[8,1-b]quinazolin-12(2H)-one] | 30 to 100
O=C1CCc2nc3cc(C#Cc4cccc(F)c4)ccc3c(=O)n2CCN1 [Example 10.5, 9-((3-fluorophenyl)ethynyl)-2,3,5,6-tetrahydro-1H-[1,4]diazocino[8,1-b]quinazoline-4,12-dione] | 30 to 100
O=C1CCn2c(nc3cc(C#Cc4cccc(F)c4)ccc3c2=O)CCN1 [Example 10.6, 11-((3-fluorophenyl)ethynyl)-2,3,5,6-tetrahydro-1H-[1,5]diazocino[2,1-b]quinazoline-4,8-dione] | 30 to 100
COCCn1cnc2cc(C#Cc3cccc(F)c3)cnc2c1=O [Example 11.1, 7-((3-fluorophenyl)ethynyl)-3-(2-methoxyethyl)pyrido[3,2-d]pyrimidin-4(3H)-one] | 30 to 100
O=c1c2ncc(C#Cc3ccccn3)cc2nc2n1C(CO)CC2 (stereo not shown) [Example 11.3, 8-(hydroxymethyl)-3-(pyridin-2-ylethynyl)-7,8-dihydropyrido[3,2-d]pyrrolo[1,2-a]pyrimidin-10(6H)-one] | 300 to 1000
CC1(C)CCc2nc3cc(C#Cc4ccccn4)cnc3c(=O)n2C1 [Example 11.5, 8,8-dimethyl-3-(pyridin-2-ylethynyl)-8,9-dihydro-6H-dipyrido[1,2-a:3′,2′-d]pyrimidin-11(7H)-one] | 100 to 300
O=c1c2ncc(C#Cc3ccccn3)cc2nc2n1CC1CCCN1C2 (stereo not shown) [Example 11.6, 3-(pyridin-2-ylethynyl)-9,10,10a,11-tetrahydro-6H-pyrido[3,2-d]pyrrolo[1′,2′:4,5]pyrazino[1,2-a]pyrimidin-13(8H)-one] | 300 to 1000
O=c1c2ncc(C#Cc3cccc(F)c3)cc2nc2n1CCCCC2 [Example 11.7, 3-((3-fluorophenyl)ethynyl)-7,8,9,10-tetrahydropyrido[3′,2′:4,5]pyrimido[1,2-a]azepin-12(6H)-one] | < 10
O=c1c2ncc(C#Cc3ccccn3)cc2nc2n1CCCCC2 [Example 11.8, 3-(pyridin-2-ylethynyl)-7,8,9,10-tetrahydropyrido[3′,2′:4,5]pyrimido[1,2-a]azepin-12(6H)-one] | 100 to 300
CC1CCc2nc3cc(C#Cc4ccccn4)cnc3c(=O)n2CC1 (stereo not shown) [Example 11.9, 8-methyl-3-(pyridin-2-ylethynyl)-7,8,9,10-tetrahydropyrido[3′,2′:4,5]pyrimido[1,2-a]azepin-12(6H)-one] | 10 to 30
CC1(C)Cc2nc3cc(C#Cc4ccccn4)cnc3c(=O)n2C1 [Example 11.10, 7,7-dimethyl-3-(pyridin-2-ylethynyl)-7,8-dihydropyrido[3,2-d]pyrrolo[1,2-a]pyrimidin-10(6H)-one] | 30 to 100
CC1Cc2nc3cc(C#Cc4ccccn4)cnc3c(=O)n2C1 (stereo not shown) [Example 11.13, 7-methyl-3-(pyridin-2-ylethynyl)-7,8-dihydropyrido[3,2-d]pyrrolo[1,2-a]pyrimidin-10(6H)-one] | 300 to 1000
